According to patent US20250144067A1, “PERSONALIZED STARVATION THERAPY FOR CANCER” (Faeth Therapeutics, Inc., priority 2021, published 2025):
Counter-ions that a name gives are not always drawn. Like-named read-outs stand apart in the source and are kept apart here. Numbered stars: 1 amine (or outer) side, 2 acyl side, 3 side chain; on linkers, the order of the positions; unused ones are H or OH. Bridge positions count the residues as written; N and C are the ends. Peptide text beside a SMILES is read from it. X2 = O=C(CCC[*:2])[*:1]

How the values were obtained:
[1] = test system: NCI-H292 lung cancer cells; test: FDA drug screening, complete media vs cholesterol-free media with simvastatin (TABLE 2); format: cell-based, human
[2] = test system: NCI-H292 lung cancer cells; test: FDA drug screening, complete media vs cholesterol-free media without statin (TABLE 1); format: cell-based, human
[3] = NCI-H292 cells, cholesterol-free media with simvastatin 0.04 μM, cell growth value in FDA drug screen
[4] = NCI-H292 cells, complete media, cell growth value in FDA drug screen
[5] = complete media minus cholesterol-free media + simvastatin, >0 enhanced anti-cancer activity, about 0 neutral, <0 antagonist
[6] = Complete minus Cholesterol-free, greater than 0 enhanced anti-cancer activity, about 0 neutral, below 0 antagonist
[7] = NCI-H292 cells, FDA drug library screen, cholesterol-free media without statin
[8] = NCI-H292 cells, FDA drug library screen, complete media
[9] = NCI-H292 cells, cholesterol-free media with simvastatin 0.04 μM, FDA drug library screen (TABLE 2)
[10] = NCI-H292 cells, complete media, FDA drug library screen (TABLE 2)
[11] = complete media minus cholesterol-free media + simvastatin (0.04 μM), >0 enhanced anti-cancer activity, about 0 neutral, <0 antagonist
[12] = Complete minus Cholesterol-free, >0 enhanced anti-cancer activity, about 0 neutral, <0 antagonist
[13] = NCI-H292 cells, cholesterol-free media without statin
[14] = complete media minus cholesterol-free media + simvastatin (0.04 μM), […]
[15] = complete media vs cholesterol-free media + simvastatin (0.04 μM), >0 enhanced anti-cancer activity, about 0 neutral, <0 antagonist
[16] = Complete minus Cholesterol-free, greater than 0 enhanced anti-cancer activity, about 0 neutral, below 0 antagonists
[17] = NCI-H292 cells in cholesterol-free media without statin
[18] = NCI-H292 cells in complete media
[19] = NCI-H292 cells, cholesterol-free media without statin, FDA drug library screen
[20] = NCI-H292 cells, complete media, FDA drug library screen
[21] = NCI-H292 cells, FDA drug library screen, cholesterol-free media with simvastatin 0.04 μM
[22] = Complete minus Cholesterol-free, […]
[23] = NCI-H292 cells, drug in cholesterol-free media with simvastatin 0.04 μM
[24] = NCI-H292 cells, drug in complete media
[25] = complete vs cholesterol-free media, >0 enhanced anti-cancer activity, about 0 neutral, <0 antagonist
[26] = complete vs cholesterol-free media, greater than 0 enhanced anti-cancer activity, about 0 neutral, below 0 antagonists

Cc1nc(C(=O)NCC(=O)O)c(O)c2ccc(Oc3ccccc3)cc12 [Roxadustat]
Cholesterol-free media + simvastatin (0.04 μM) [1, 3]: 1.201
Complete Media [1, 4]: 1.327
Difference [1, 5]: 0.13
Difference [2, 6]: −0.11
Cholesterol-free [2, 7]: 1.074
Complete [2, 8]: 0.9662

NCCc1c[nH]cn1.O=P(O)(O)O [Histamine (phosphate)]
Cholesterol-free media + simvastatin (0.04 μM) [1, 9]: 1.025
Complete Media [1, 10]: 1.021
Difference [1, 11]: 0.00
Difference [2, 12]: −0.23
Cholesterol-free [2, 13]: 1.032
Complete ([2]; NCI-H292 cells, complete media): 0.8034

Niraparib (tosylate)
Cholesterol-free media + simvastatin (0.04 μM) [1]: 1.448
Complete Media [1]: 1.091
Difference [1]: −0.36
Cholesterol-free [2]: 1.671
Difference [2]: −0.63

Cc1c(Cl)c(C)[n+]([O-])c(Cl)c1-c1noc(-c2cc(O)c(O)c([N+](=O)[O-])c2)n1 [Opicapone]
Cholesterol-free media + simvastatin (0.04 μM) [1, 9]: 0.9346
Complete Media [1, 10]: 0.8971
Difference [1, 11]: −0.04
Difference [2, 6]: −0.13
Cholesterol-free [2, 7]: 0.8861
Complete [2, 8]: 0.7591

Rivastigmine (tartrate)
Cholesterol-free media + simvastatin (0.04 μM) [1, 9]: 1.478
Complete Media [1, 10]: 1.417
Difference [1, 14]: −0.06
Cholesterol-free [2, 13]: 1.242
Complete ([2]; NCI-H292 cells, complete media): 0.9137
Difference ([2]; complete vs cholesterol-free media, […]): −0.33

CCC1(c2ccccc2)NC(=O)N(C)C1=O (centres unmarked) [Mephenytoin]
Cholesterol-free media + simvastatin (0.04 μM) ([1]; NCI-H292 cells, FDA library drug in cholesterol-free media with simvastatin 0.04 μM): 1.274
Complete Media ([1]; NCI-H292 cells, FDA library drug in complete media): 1.003
Difference [1, 15]: −0.27
Difference [2, 16]: −0.62
Cholesterol-free [2, 17]: 1.604
Complete [2, 18]: 0.9878

CC(C)[N+](C)(CCOC(=O)C1c2ccccc2Oc2ccccc21)C(C)C.[Br-] [Propantheline (bromide)]
Cholesterol-free media + simvastatin (0.04 μM) [1, 3]: 1.413
Complete Media [1, 4]: 1.449
Difference [1, 5]: 0.04
Difference [2, 12]: −0.02
Cholesterol-free [2, 19]: 1.311
Complete [2, 20]: 1.294

Cc1cc(C)nc(NS(=O)(=O)c2ccc(N)cc2)n1 [Sulfamethazine]
Cholesterol-free media + simvastatin (0.04 μM) [1, 21]: 1.21
Complete Media [1, 8]: 1.052
Difference [1, 15]: −0.16
Difference [2, 16]: −0.77
Cholesterol-free [2, 17]: 1.661
Complete [2, 18]: 0.8945

CC[C@H](C)[C@@H]1NC(=O)[C@H](Cc2ccc(OC)cc2)NC(=O)CCCSC[C@@H](C(=O)N2CCC[C@H]2C(=O)N[C@@H](CC(C)C)C(=O)NCC(N)=O)NC(=O)[C@H](CC(N)=O)NC(=O)[C@H](CCC(N)=O)NC1=O [Carbetocin] (Y(Me)IQNCPLG-NH2; linker N-5 via X2)
Cholesterol-free media + simvastatin (0.04 μM) [1, 21]: 1.6
Complete Media [1, 8]: 1.76
Difference ([1]; complete media minus cholesterol-free media + simvastatin, […]): 0.16
Difference [2, 22]: −0.26
Cholesterol-free [2, 13]: 1.283
Complete ([2]; NCI-H292 cells, complete media): 1.021

O=C1NCC2(CCN(CCc3ccccc3)CC2)O1 [Fenspiride (Hydrochloride)]
Cholesterol-free media + simvastatin (0.04 μM) [1, 23]: 1.105
Complete Media [1, 24]: 0.9138
Difference [1, 15]: −0.19
Cholesterol-free [2, 19]: 0.597
Complete [2, 20]: 0.752
Difference [2, 25]: 0.15

CC(C)OC(=O)CCC/C=C\C[C@@H]1[C@@H](/C=C/C(F)(F)COc2ccccc2)[C@H](O)C[C@@H]1O [Tafluprost]
Cholesterol-free media + simvastatin (0.04 μM) [1, 23]: 1.261
Complete Media [1, 24]: 1.095
Difference [1, 15]: −0.17
Difference [2, 6]: −0.18
Cholesterol-free [2, 7]: 0.9541
Complete [2, 8]: 0.7736

CCC(=O)NCC[C@@H]1CCc2ccc3c(c21)CCO3 [Ramelteon]
Cholesterol-free media + simvastatin (0.04 μM) [1, 21]: 1.166
Complete Media [1, 8]: 1.318
Difference [1, 5]: 0.15
Difference [2, 6]: −0.10
Cholesterol-free [2, 7]: 0.9442
Complete [2, 8]: 0.8409

Cc1cc(O)cc(C)c1Cl [Chloroxylenol]
Cholesterol-free media + simvastatin (0.04 μM) [1, 9]: 0.9866
Complete Media [1, 10]: 0.951
Difference [1, 11]: −0.04
Difference [2, 12]: −0.19
Cholesterol-free [2, 13]: 1.219
Complete ([2]; NCI-H292 cells, complete media): 1.028

C[C@@H](O)[C@H]1C(=O)N2C(C(=O)O)=C([C@H]3CCCO3)S[C@H]12 [Faropenem sodium]
Cholesterol-free media + simvastatin (0.04 μM) [1, 3]: 0.9421
Complete Media [1, 4]: 0.984
Difference [1, 5]: 0.04
Difference [2, 12]: −0.02
Cholesterol-free [2, 19]: 0.8692
Complete [2, 20]: 0.8522

COc1ccc(C(=O)N2CCN(c3ccc4c(c3)CCC(=O)N4)CC2)cc1OC [Vesnarinone]
Cholesterol-free media + simvastatin (0.04 μM) [1, 9]: 0.9506
Complete Media [1, 10]: 0.9031
Difference [1, 11]: −0.05
Cholesterol-free [2, 19]: 0.9756
Complete [2, 20]: 1.197
Difference [2, 25]: 0.22

CCCCC(CC)COC(=O)CC(C(=O)OCC(CC)CCCC)S(=O)(=O)O (centres unmarked) [Docusate (Sodium)]
Cholesterol-free media + simvastatin (0.04 μM) [1, 23]: 1.08
Complete Media [1, 24]: 0.9061
Difference [1, 15]: −0.17
Cholesterol-free [2, 13]: 1.285
Complete ([2]; NCI-H292 cells, complete media): 0.839
Difference [2, 26]: −0.45

CC(C)(C#N)c1cc(Cn2cncn2)cc(C(C)(C)C#N)c1 [Anastrozole]
Cholesterol-free media + simvastatin (0.04 μM) [1, 9]: 1.07
Complete Media [1, 10]: 1.045
Difference [1, 11]: −0.02
Difference [2, 12]: −0.28
Cholesterol-free [2, 13]: 1.263
Complete ([2]; NCI-H292 cells, complete media): 0.9847

Cl.NC(CO)(CO)CO [Trometamol (hydrochloride)]
Cholesterol-free media + simvastatin (0.04 μM) [1]: 1.673
Complete Media [1]: 1.379
Difference [1]: −0.29
Cholesterol-free [2]: 0.9218
Complete [2]: 0.6947
Difference [2]: −0.23

CN(C)C(=O)c1cc2cnc(Nc3ccc(N4CCNCC4)cn3)nc2n1C1CCCC1 [Ribociclib]
Cholesterol-free media + simvastatin (0.04 μM) [1, 3]: 0.6195
Complete Media [1, 4]: 0.7338
Difference [1, 5]: 0.11
Difference [2, 12]: −0.30
Cholesterol-free [2, 13]: 1.15
Complete ([2]; NCI-H292 cells, complete media): 0.8537

C[C@H](O)[C@H](O)[C@H]1CNc2nc(N)[nH]c(=O)c2N1 [Sapropterin (dihydrochloride)]
Cholesterol-free media + simvastatin (0.04 μM) [1, 23]: 1.145
Complete Media [1, 24]: 0.9841
Difference [1, 15]: −0.16
Difference [2, 12]: −0.20
Cholesterol-free [2, 13]: 1.242
Complete ([2]; NCI-H292 cells, complete media): 1.038

Nc1nc2c(ncn2COCCO)c(=O)[nH]1 [Acyclovir]
Cholesterol-free media + simvastatin (0.04 μM) [1, 21]: 1.866
Complete Media [1, 8]: 1.782
Difference [1, 15]: −0.08
Cholesterol-free [2, 19]: 0.843
Complete [2, 20]: 1.434
Difference [2, 25]: 0.59

O=NN(CCCl)C(=O)NC1CCCCC1 [Lomustine]
Cholesterol-free media + simvastatin (0.04 μM) [1, 9]: 0.7579
Complete Media [1, 10]: 0.7602
Difference [1, 14]: 0.00
Difference [2, 22]: −0.14
Cholesterol-free [2, 7]: 1.107
Complete [2, 8]: 0.965

CC(=O)SCC(Cc1ccccc1)C(=O)NCC(=O)OCc1ccccc1 (centres unmarked) [Racecadotril]
Cholesterol-free media + simvastatin (0.04 μM) [1, 23]: 1.092
Complete Media [1, 24]: 0.8523
Difference [1, 15]: −0.24
Cholesterol-free [2, 13]: 1.294
Complete ([2]; NCI-H292 cells, complete media): 0.8911
Difference [2, 26]: −0.40
